Laboratory results published in patent publication US7488740B2, “Substituted quinolin-4-ylamine analogues” (Neurogen Corporation, priority 2003, dated 2009).

target: T1, human capsaicin receptor (Homo sapiens, UniProt Q8NER1); test: Calcium mobilization assay (Example 6); format: cell-based; conditions: concentration required to provide a 50% decrease in the fluorescence response of cells exposed to one IC50 of capsaicin
T1 construct: A cDNA encoding full length human capsaicin receptor recited in U.S. Pat. No. 6,482,611 was subcloned in the plasmid pBK-CMV; expressed in transfected cells
T1 sequence (Q8NER1 whole entry): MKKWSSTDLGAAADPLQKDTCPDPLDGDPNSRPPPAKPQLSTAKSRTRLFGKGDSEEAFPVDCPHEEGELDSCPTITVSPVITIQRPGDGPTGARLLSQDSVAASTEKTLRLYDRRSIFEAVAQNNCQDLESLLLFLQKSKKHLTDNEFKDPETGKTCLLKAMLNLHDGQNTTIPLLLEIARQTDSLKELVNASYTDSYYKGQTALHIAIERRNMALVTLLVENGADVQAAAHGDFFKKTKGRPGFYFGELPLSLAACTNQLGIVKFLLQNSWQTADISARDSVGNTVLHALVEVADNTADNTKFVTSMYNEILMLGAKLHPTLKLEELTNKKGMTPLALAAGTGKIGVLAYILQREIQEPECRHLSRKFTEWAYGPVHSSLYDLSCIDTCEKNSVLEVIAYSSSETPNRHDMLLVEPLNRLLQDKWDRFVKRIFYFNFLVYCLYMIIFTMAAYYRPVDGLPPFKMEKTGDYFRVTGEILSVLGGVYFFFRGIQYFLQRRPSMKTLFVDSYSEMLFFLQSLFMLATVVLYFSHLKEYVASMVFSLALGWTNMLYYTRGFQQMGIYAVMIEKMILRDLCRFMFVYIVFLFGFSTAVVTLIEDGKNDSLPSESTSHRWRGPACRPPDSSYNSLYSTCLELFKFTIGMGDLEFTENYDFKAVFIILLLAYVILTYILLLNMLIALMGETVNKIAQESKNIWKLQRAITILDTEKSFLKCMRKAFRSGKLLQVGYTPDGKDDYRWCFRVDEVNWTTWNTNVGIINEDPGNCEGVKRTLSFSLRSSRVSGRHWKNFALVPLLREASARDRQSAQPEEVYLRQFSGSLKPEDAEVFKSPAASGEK
Experimental: Human embryonic kidney (HEK293) cells were transfected with the pBK-CMV expression construct encoding the full length human capsaicin receptor using standard methods. The transfected cells were selected for two weeks in media containing G418 (400 μg/ml) to obtain a pool of stably transfected cells. Independent clones were isolated from this pool by limiting dilution to obtain clonal stable cell lines for use in subsequent experiments.
Cells transfected with expression plasmids (as described in Example 4) and thereby expressing human capsaicin receptor are seeded and grown to 70-90% confluency in FALCON black-walled, clear-bottomed 96-well plates (#3904, BECTON-DICKINSON, Franklin Lakes, N.J.). The culture medium is emptied from the 96 well plates and FLUO-3 AM calcium sensitive dye (Molecular Probes, Eugene, Oreg.) is added to each well (dye solution: 1 mg FLUO-3 AM, 440 μL DMSO and 440 μl 20% pluronic acid in DMSO, diluted 1:250 in Krebs-Ringer HEPES (KRH) buffer (25 mM HEPES, 5 mM KCl, 0.96 mM NaH2PO4, 1 mM MgSO4, 2 mM CaCl2, 5 mM glucose, 1 mM probenecid, pH 7.4), 50 μl diluted solution per well). Plates are covered with aluminum foil and incubated at 37° C. for 1-2 hours in an environment containing 5% CO2. After the incubation, the dye is emptied from the plates, and the cells are washed once with KRH buffer, and, resuspended in KRH buffer.
Agonist (e.g., olvanil, capsaicin, or RTX)-induced calcium mobilization is monitored using either FLUOROSKAN ASCENT (Labsystems, Franklin, Mass.) or FLIPR (fluorometric imaging plate reader system, Molecular Devices, Sunnyvale, Calif.) instruments. Varying concentrations of the antagonists ruthenium red or capsazepine (RBI; Natick, Mass.) are added to cells concurrently with agonist (e.g., 25-50 nM capsaicin). For agonist-induced calcium responses, data obtained between 30 and 60 seconds after agonist application are used to generate the IC50 values. KALEIDAGRAPH software (Synergy Software, Reading, Pa.) is used to fit the data to the equation: y=a*(1/(1+(b/x)^c)) to determine the IC50 for the response. In this equation, y is the maximum fluorescence signal, x is the concentration of the agonist or antagonist, a is the Emax, b corresponds to the IC50 value and c is the Hill coefficient.
To measure the ability of a test compound to antagonize (inhibit) the response of cells expressing capsaicin receptors to capsaicin or other vanilloid agonist, the IC50 of capsaicin is first determined. An additional 20 μl of KRH buffer and 1 μl DMSO is added to each well of cells, prepared as described above. 100 μl capsaicin in KRH buffer is automatically transferred by the FLIPR instrument to each well. An 8-point concentration response curve, with final capsaicin concentrations of 1 nM to 3 μM, is used to determine capsaicin IC50.
Test compounds are dissolved in DMSO, diluted in 20 μl KRH buffer so that the final concentration of test compounds in the assay well is between 1 μM and 5 μM, and added to cells prepared as described above. The 96 well plates containing prepared cells and test compounds are incubated in the dark, at room temperature for 0.5 to 6 hours. It is important that the incubation not continue beyond 6 hours. Just prior to determining the fluorescence response, 100 μl capsaicin in KRH buffer at twice the IC50 concentration determined from the concentration response curve is automatically added by the FLIPR instrument to each well of the 96 well plate for a final sample volume of 200 μl and a final capsaicin concentration equal to the IC50. The final concentration of test compounds in the assay wells is between 1 μM and 5 μM. […] Antagonists of the capsaicin receptor decrease this response by at least about 20%, preferably by at least about 50%, and most preferably by at least 80% as compared to matched control. The concentration of antagonist required to provide a 50% decrease is the IC50 for the antagonist, and is preferably below 1 micromolar, 100 nanomolar, 10 nanomolar or 1 nanomolar. […]

IC50, ≤ 1000 nM:
Cc1cc(Nc2ccc(C(F)(F)F)cc2)c2ccc(-c3ncccc3C(F)(F)F)cc2n1 [Compound 1, 2-methyl-N-[4-(trifluoromethyl)phenyl]-7-[3-(trifluoromethyl)pyridin-2-yl]quinolin-4-amine]
COCc1cc(Nc2ccc(C(F)(F)F)cc2)c2ccc(-c3ncccc3C(F)(F)F)nc2n1 [Compound 2]
COCc1cc(Nc2ccc(C(C)(C)C)cc2)c2ccc(-c3ncccc3C(F)(F)F)nc2n1 [Compound 3]
COCc1nc2nc(-c3ncccc3C(F)(F)F)ccc2c(Nc2ccc(C(F)(F)F)cc2)c1C(=O)OC [Compound 4, methyl 2-(methoxymethyl)-4-{[4-(trifluoromethyl)phenyl]amino}-7-[3-(trifluoromethyl)pyridin-2-yl]-1,8-naphthyridine-3-carboxylate]
OCc1cc(Nc2ccc(C(F)(F)F)cc2)c2ccc(-c3ncccc3C(F)(F)F)nc2n1 [Compound 5, {4-{[4-(trifluoromethyl)phenyl]amino}-7-[3-(trifluoromethyl)pyridin-2-yl]-1,8-naphthyridin-2-yl}methanol]
COCc1nc2nc(-c3ncccc3C(F)(F)F)ccc2c(Nc2ccc(C(F)(F)F)cc2)c1C(=O)O [Compound 6, 2-(methoxymethyl)-4-{[4-(trifluoromethyl)phenyl]amino}-7-[3-(trifluoromethyl)pyridin-2-yl]-1,8-naphthyridine-3-carboxylic acid]
CC(C)COCc1cc(Nc2ccc(C(F)(F)F)cc2)c2ccc(-c3ncccc3C(F)(F)F)nc2n1 [Compound 7, 2-(isobutoxymethyl)-N-[4-(trifluoromethyl)phenyl]-7-[3-(trifluoromethyl)pyridin-2-yl]-1,8-naphthyridin-4-amine]
COCc1cc(Nc2ccc(Cl)cc2)c2ccc(-c3ncccc3C(F)(F)F)nc2n1 [Compound 8, N-(4-chlorophenyl)-2-(methoxymethyl)-7-[3-(trifluoromethyl)pyridin-2-yl]-1,8-naphthyridin-4-amine]
COCc1cc(Nc2ccc(F)cc2)c2ccc(-c3ncccc3C(F)(F)F)nc2n1 [Compound 9, N-(4-fluorophenyl)-2-(methoxymethyl)-7-[3-(trifluoromethyl)pyridin-2-yl]-1,8-naphthyridin-4-amine]
COCc1cc(Nc2ccc(Cl)c(F)c2)c2ccc(-c3ncccc3C(F)(F)F)nc2n1 [Compound 10, N-(4-chloro-3-fluorophenyl)-2-(methoxymethyl)-7-[3-(trifluoromethyl)pyridin-2-yl]-1,8-naphthyridin-4-amine]
COCc1cc(Nc2ccc(C#N)cc2)c2ccc(-c3ncccc3C(F)(F)F)nc2n1 [Compound 11, 4-({2-(methoxymethyl)-7-[3-(trifluoromethyl)pyridin-2-yl]-1,8-naphthyridin-4-yl}amino)benzonitrile]
O=C1OCc2nc3nc(-c4ncccc4C(F)(F)F)ccc3c(Nc3ccc(C(F)(F)F)cc3)c21 [Compound 12, 5-{[4-(trifluoromethyl)phenyl]amino}-2-[3-(trifluoromethyl)pyridin-2-yl]furo[3,4-b]-1,8-naphthyridin-6(8H)-one]
COCc1cc(Nc2ccc(S(=O)(=O)C(C)C)cc2)c2ccc(-c3ncccc3C(F)(F)F)nc2n1 [Compound 13, N-[4-(isopropylsulfonyl)phenyl]-2-(methoxymethyl)-7-[3-(trifluoromethyl)pyridin-2-yl]-1,8-naphthyridin-4-amine]
COCc1cc(Nc2ccc(C(F)(F)F)cn2)c2ccc(-c3ncccc3C(F)(F)F)nc2n1 [Compound 14, 2-(methoxymethyl)-7-[3-(trifluoromethyl)pyridin-2-yl]-N-[5-(trifluoromethyl)pyridin-2-yl]-1,8-naphthyridin-4-amine]
